This note sets out measurements from patent publication US20260109725A1, “MACROLIDE SENOLYTIC COMPOUNDS” (LUNELLA BIOTECH, INC., priority 2022, published 2026).

What all share (type): cell-based
The test system of test [1] is Streptococcus pneumoniae ATCC 49619. The test is described as follows: in vitro broth microdilution assay (MIC). The following applies: ATCC49619; Streptococcus pneumoniae ATCC 49619, QC strain. The procedure:
(§1) This is advantageous because use of the compounds of the present approach as therapeutic agents will have less of an impact on the development of antibiotic resistance. For example, embodiments of the present approach were screened for antibiotic activity, using the in vitro broth microdilution assay. […] The assay conditions, described by the Clinical and Laboratory Standards Institute were used for preparation of the inoculum, growth medium, and end point reading. Test substance was dissolved in 100% DMSO, suspended completely by vortexing, diluted by 2-fold serial titrations in the same vehicle, for a total of 11 test concentrations. A 4 μL aliquot of each dilution was added to 196 μL of broth medium seeded with the organism suspension in wells of a 96 well plate (bacterial count: 2-8×10(5) colony forming units/mL final). The final volume was 200 μL in each well and the final DMSO concentration was 2 percent. Test concentrations were 0.1 to 100 μM. Following incubation, the test plates were visually examined and wells were scored for growth or complete growth inhibition to define the minimum inhibitory concentration. Each test substance was evaluated with replicates. Vehicle controls and an active reference agent were used as blank and positive controls. Note that MRSA represents methicillin-resistant Staphylococcus aureus, and VRE represents vancomycin resistant Enterococcus.

Test [2] concerns Enterococcus faecium ATCC 700221 VanA VRE. The test can be described thus: in vitro broth microdilution assay (MIC). On the procedure:
as §1

The test system of test [3] is Klebsiella pneumoniae ATCC 43816. The test is described as follows: in vitro broth microdilution assay (MIC). The following applies: ATCC43816. The procedure: as §1
In test [4] the test system is Staphylococcus aureus ATCC 29213. The test can be described thus: in vitro broth microdilution assay (MIC). As to conditions: ATCC29213; Staphylococcus aureus ATCC 29213, QC strain. On the procedure:
as §1

For test [5], the system named is Staphylococcus aureus ATCC 33591 MRSA. The test is described as follows: in vitro broth microdilution assay (MIC). The procedure: as §1
For test [6], the system named is Escherichia coli JW5503 DEL-tolC. The test can be described thus: in vitro broth microdilution assay (MIC). As to conditions: JW5503DELTOLC. The procedure:
as §1

Test [7] deals with Acinetobacter baumannii ATCC 17978. The test is described as follows: in vitro broth microdilution assay (MIC). The following applies: ATCC17978. The procedure:
as §1

In test [8] the test system is Pseudomonas aeruginosa ATCC 27853. The test can be described thus: in vitro broth microdilution assay (MIC). As to conditions: ATCC27853; Pseudomonas aeruginosa ATCC 27853, QC strain. On the procedure: as §1
In test [9] the test system is Enterococcus faecalis ATCC 29212. The test can be described thus: in vitro broth microdilution assay (MIC). As to conditions: ATCC29212; Enterococcus faecalis ATCC 29212, QC strain. The procedure:
as §1

The test system of test [10] is Haemophilus influenzae ATCC 49247. The test is described as follows: in vitro broth microdilution assay (MIC). As to conditions: ATCC49247; Haemophilus influenzae ATCC 49247, QC strain. On the procedure:
as §1

Test [11] relates to Escherichia coli ATCC 25922. The test can be described thus: in vitro broth microdilution assay (MIC). As to conditions: ATCC25922; Escherichia coli ATCC 25922, QC strain. On the procedure: as §1
The test system of test [12] is microorganism. The test is described as follows: antibiotic activity screen, in vitro broth microdilution assay (overall statement). The following applies: vs azithromycin and erythromycin / reference compounds. On the procedure:
as §1

Turning to `CC[C@H]1OC(=O)[C@H](C)[C@@H](O[C@@H]2C[C@@](C)(OC)[C@@H](O)[C@H](C)O2)[C@H](C)[C@@H](O[C@@H]2O[C@H](C)C[C@H](N(C)C)[C@H]2OC(=O)OCc2ccc(O[C@@H]3O[C@H](COC(C)=O)[C@H](OC(C)=O)[C@H](OC(C)=O)[C@H]3OC(C)=O)c([N+](=O)[O-])c2)[C@](C)(O)C[C@@H](C)CN(C)[C@H](C)[C@@H](O)[C@]1(C)O` [Compound [I], [(2R,3S,4S,5R,6S)-3,4,5-triacetoxy-6-[4-[[(2S,3R,4S,6R)-4-(dimethylamino)-2-[[(2R,3S,4R,5R,8R,10R,11R,12S,13S,14R)-2-ethyl-3,4,10-trihydroxy-13-[(2S,4R,5S,6S)-5-hydroxy-4-methoxy-4,6-dimethyl-tetrahydropyran-2-yl]oxy-3,5,6,8,10,12,14-heptamethyl-15-oxo-1-oxa-6-azacyclopentadec-11-yl]oxy]-6-methyl-tetrahydropyran-3-yl]oxycarbonyloxymethyl]-2-nitro-phenoxy]tetrahydropyran-2-yl]methyl acetate], the MIC in [1] was 0.78 µM; in test [2] it was more than 100 µM; in [3], 50 µM; in [4], 6.25 µM; in [5], more than 100 µM; in [6] it was 6.25 µM. Moreover, the MIC in test [7] is 100 µM; in test [8], more than 100 µM; in test [9], 25 µM; in test [10], 3.12 µM; in test [11], 12.5 µM. The “antibiotic activity compared to macrolide antibiotics” value in test [12] is recorded as “less antibiotic activity”.
